From US11434246B2, “EP4 antagonists” (Eisai R&D Management Co., Ltd., priority 2015, dated 2022)

Each compound was assayed against EP4 (Homo sapiens, UniProt P35408) (assay: EP4 Antagonism by CRE-PLAP Reporter Assay (SE302 cells, PGE2-stimulated)). Conditions: SE302 (HEK293) cells, 3 ng/mL PGE2, overnight; single or multiple assay average values.
Format: cell-based
Parameters: HEK293 cells express endogenous EP4; endogenous in cells; host or cells: SE302 (HEK293 clone with CRE-PLAP reporter)
In short: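 HEK293-derived SE302 cells with endogenous EP4 and CRE-driven secreted PLAP, in serum-free medium with 0.1% BSA, stimulated overnight with 3 ng/mL PGE2 plus compound. Supernatant PLAP read by luminescence (pH 11 carbonate buffer, 2 h). IC50 from % of control, normalized to DMSO with and without PGE2.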

EP4, sequence (P35408 whole entry): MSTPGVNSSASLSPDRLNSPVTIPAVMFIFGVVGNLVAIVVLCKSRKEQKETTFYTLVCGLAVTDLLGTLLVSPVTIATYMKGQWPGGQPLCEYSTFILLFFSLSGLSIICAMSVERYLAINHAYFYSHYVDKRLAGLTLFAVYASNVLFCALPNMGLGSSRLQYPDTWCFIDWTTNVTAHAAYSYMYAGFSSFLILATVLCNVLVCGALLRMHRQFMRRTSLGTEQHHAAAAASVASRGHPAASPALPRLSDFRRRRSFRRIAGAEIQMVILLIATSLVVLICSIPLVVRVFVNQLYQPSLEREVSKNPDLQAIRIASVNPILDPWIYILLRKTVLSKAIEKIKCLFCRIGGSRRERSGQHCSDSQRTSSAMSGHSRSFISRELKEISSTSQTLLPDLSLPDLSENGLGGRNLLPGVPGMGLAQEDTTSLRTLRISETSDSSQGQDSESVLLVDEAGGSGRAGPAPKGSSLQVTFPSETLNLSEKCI

Row | SMILES | IC50
1 | C[C@H](NC(=O)c1c(C(F)(F)F)nn2c1N(Cc1ccc(I)c(C(F)(F)F)c1)CC2)c1ccc(C(=O)O)cc1 [Compound 68, (S)-4-(1-(1-(4-iodo-3-(trifluoromethyl)benzyl)-6-(trifluoromethyl)-2,3-dihydro-1H-imidazo[1,2-b]pyrazole-7-carboxamido)ethyl)benzoic acid] | 10.9 nM
2 | C[C@H](NC(=O)c1c(C(F)(F)F)nn2c1N(Cc1cccc(C(F)(F)F)c1)CC2)c1ccc(C(=O)NS(=O)(=O)c2ccc([N+](=O)[O-])cc2)cc1 [Compound 71, (S)—N-(1-(4-(((4-nitrophenyl)sulfonyl)carbamoyl)phenyl)ethyl)-6-(trifluoromethyl)-1-(3-(trifluoromethyl)benzyl)-2,3-dihydro-1H-imidazo[1,2-b]pyrazole-7-carboxamide] | 5.87 nM
3 | C[C@H](NC(=O)c1c(C(F)(F)F)nn2c1N(Cc1cccc(C(F)(F)F)c1)CC2)c1ccc(C(=O)NS(=O)(=O)c2ccc(N)cc2)cc1 [Compound 72, (S)—N-(1-(4-(((4-aminophenyl)sulfonyl)carbamoyl)phenyl)ethyl)-6-(trifluoromethyl)-1-(3-(trifluoromethyl)benzyl)-2,3-dihydro-1H-imidazo[1,2-b]pyrazole-7-carboxamide] | 51.2 nM
4 | C[C@H](NC(=O)c1c(C(F)(F)F)nn2c1N(Cc1cccc(COCCF)c1)CC2)c1ccc(C(=O)O)cc1 [Compound 74, (S)-4-(1-(1-(3-((2-fluoroethoxy)methyl)benzyl)-6-(trifluoromethyl)-2,3-dihydro-1H-imidazo[1,2-b]pyrazole-7-carboxamido)ethyl)benzoic Acid] | 28 nM
5 | C[C@H](NC(=O)c1c(C(F)(F)F)nn2c1N(CC1CCC(CF)CC1)CC2)c1ccc(C(=O)O)cc1 (stereo partly drawn) [Compound 78, (S)-4-(1-(1-((4-(fluoromethyl)cyclohexyl)methyl)-6-(trifluoromethyl)-2,3-dihydro-1H-imidazo[1,2-b]pyrazole-7-carboxamido)ethyl)benzoic acid] | 63 nM
6 | C=C1CCC(CN2CCn3nc(C(F)(F)F)c(C(=O)N[C@@H](C)c4ccc(C(=O)O)cc4)c32)CC1 [Compound 79, (S)-4-(1-(1-((4-methylenecyclohexyl)methyl)-6-(trifluoromethyl)-2,3-dihydro-1H-imidazo[1,2-b]pyrazole-7-carboxamido)ethyl)benzoic acid] | 18.9 nM
7 | C[C@H](NC(=O)c1c(C(F)(F)F)nn2c1N(Cc1cccc(C(F)(F)F)c1)C[C@H]2COCc1ccccc1)c1ccc(C(=O)O)cc1 [Compound 80, 4-((S)-1-((S)-3-((benzyloxy)methyl)-6-(trifluoromethyl)-1-(3-(trifluoromethyl)benzyl)-2,3-dihydro-1H-imidazo[1,2-b]pyrazole-7-carboxamido)ethyl)benzoic Acid] | 58.1 nM
8 | O=C(O)c1ccc([C@H](CO)NC(=O)c2c(C(F)(F)F)nn3c2N(Cc2cccc(C(F)(F)F)c2)CC3)cc1 [Compound 87, (R)-4-(2-hydroxy-1-(6-(trifluoromethyl)-1-(3-(trifluoromethyl)benzyl)-2,3-dihydro-1H-imidazo[1,2-b]pyrazole-7-carboxamido)ethyl)benzoic Acid] | 34.7 nM
9 | C[C@H](NC(=O)c1c(C(F)(F)F)nn2c1N(Cc1ccc(N(C)C)cc1)CC2)c1ccc(C(=O)O)cc1 [Compound 88, (S)-4-(1-(1-(4-(dimethylamino)benzyl)-6-(trifluoromethyl)-2,3-dihydro-1H-imidazo[1,2-b]pyrazole-7-carboxamido)ethyl)benzoic Acid] | 18.5 nM
10 | C[C@H](NC(=O)c1c(C(F)(F)F)nn2c1N(Cc1cc(N(C)C)cc(C(F)(F)F)c1)CC2)c1ccc(C(=O)O)cc1 [Compound 90, (S)-4-(1-(1-(3-(dimethylamino)-5-(trifluoromethyl)benzyl)-6-(trifluoromethyl)-2,3-dihydro-1H-imidazo[1,2-b]pyrazole-7-carboxamido)ethyl)benzoic Acid] | 6.37 nM
11 | C=Cc1nn2c(c1C(=O)N[C@@H](C)c1ccc(C(=O)O)cc1)N(Cc1cccc(C(F)(F)F)c1)CC2 [Compound 92, (S)-4-(1-(1-(3-(Trifluoromethyl)benzyl)-6-vinyl-2,3-dihydro-1H-imidazo[1,2-b]pyrazole-7-carboxamido)ethyl)benzoic Acid] | 5.43 nM
12 | C[C@H](NC(=O)c1c(CO)nn2c1N(Cc1cccc(C(F)(F)F)c1)CC2)c1ccc(C(=O)O)cc1 [Compound 93, (S)-4-(1-(6-(Hydroxymethyl)-1-(3-(trifluoromethyl)benzyl)-2,3-dihydro-1H-imidazo[1,2-b]pyrazole-7-carboxamido)ethyl)benzoic Acid] | 6.59 nM

These reach a lower IC50. Values come first.

Row | IC50 | SMILES
13 | 0.7 nM | C[C@H](NC(=O)c1c(C(F)(F)F)nn2c1N(Cc1cccc(I)c1)CC2)c1ccc(C(=O)O)cc1 [Compound 69, (S)-4-(1-(1-(3-iodobenzyl)-6-(trifluoromethyl)-2,3-dihydro-1H-imidazo[1,2-b]pyrazole-7-carboxamido)ethyl)benzoic acid]
14 | 0.84 nM | C[C@H](NC(=O)c1c(C(F)(F)F)nn2c1N(Cc1ccccc1)CC2)c1ccc(C(=O)O)cc1 [Compound 70, (S)-4-(1-(1-benzyl-6-(trifluoromethyl)-2,3-dihydro-1H-imidazo[1,2-b]pyrazole-7-carboxamido)ethyl)benzoic acid]
15 | 1.49 nM | C[C@H](NC(=O)c1c(C(F)(F)F)nn2c1N(Cc1ccc(N)cc1)CC2)c1ccc(C(=O)O)cc1 [Compound 73, (S)-4-(1-(1-(4-aminobenzyl)-6-(trifluoromethyl)-2,3-dihydro-1H-imidazo[1,2-b]pyrazole-7-carboxamido)ethyl)benzoic Acid]
16 | 4.66 nM | C[C@H](NC(=O)c1c(C(F)(F)F)nn2c1N(Cc1cccc(OCCF)c1)CC2)c1ccc(C(=O)O)cc1 [Compound 75, (S)-4-(1-(1-(3-(2-fluoroethoxy)benzyl)-6-(trifluoromethyl)-2,3-dihydro-1H-imidazo[1,2-b]pyrazole-7-carboxamido)ethyl)benzoic Acid]
17 | 4.12 nM | C[C@H](NC(=O)c1c(C(F)(F)F)nn2c1[N+]([O-])(Cc1cccc(I)c1)CC2)c1ccc(C(=O)O)cc1 (stereo partly drawn) [Compound 76, 7-(((S)-1-(4-carboxyphenyl)ethyl)carbamoyl)-1-(3-iodobenzyl)-6-(trifluoromethyl)-2,3-dihydro-1H-imidazo[1,2-b]pyrazole 1-oxide]
18 | 0.182 nM | C[C@H](NC(=O)c1c(C(F)(F)F)nn2c1N(Cc1cc(O)cc(C(F)(F)F)c1)CC2)c1ccc(C(=O)O)cc1 [Compound 77, (S)-4-(1-(1-(3-hydroxy-5-(trifluoromethyl)benzyl)-6-(trifluoromethyl)-2,3-dihydro-1H-imidazo[1,2-b]pyrazole-7-carboxamido)ethyl)benzoic Acid]
19 | 0.26 nM | C[C@H](NC(=O)c1c(C(F)(F)F)nn2c1N(Cc1cccc(C(F)(F)F)c1)C[C@H]2CF)c1ccc(C(=O)O)cc1 [Compound 81, 4-((S)-1-((S)-3-(fluoromethyl)-6-(trifluoromethyl)-1-(3-(trifluoromethyl)benzyl)-2,3-dihydro-1H-imidazo[1,2-b]pyrazole-7-carboxamido)ethyl)benzoic acid]
20 | 1.1 nM | Cc1cn(Cc2cccc(C(F)(F)F)c2)c2c(C(=O)N[C@@H](C)c3ccc(C(=O)O)cc3)c(C(F)(F)F)nn12 [Compound 82, (S)-4-(1-(3-methyl-6-(trifluoromethyl)-1-(3-(trifluoromethyl)benzyl)-1H-imidazo[1,2-b]pyrazole-7-carboxamido)ethyl)benzoic acid]
21 | 0.64 nM | C[C@H](NC(=O)c1c(C(F)(F)F)nn2c1N(Cc1cccc(C(F)(F)F)c1)C[C@H]2CO)c1ccc(C(=O)O)cc1 [Compound 83, 4-((S)-1-((S)-3-(hydroxymethyl)-6-(trifluoromethyl)-1-(3-(trifluoromethyl)benzyl)-2,3-dihydro-1H-imidazo[1,2-b]pyrazole-7-carboxamido)ethyl)benzoic Acid]
22 | 0.358 nM | C[C@H](NC(=O)c1c(C(F)(F)F)nn2c1N(Cc1cc(F)cc(C(F)(F)F)c1)CC2)c1ccc(C(=O)O)cc1 [Compound 84, (S)-4-(1-(1-(3-fluoro-5-(trifluoromethyl)benzyl)-6-(trifluoromethyl)-2,3-dihydro-1H-imidazo[1,2-b]pyrazole-7-carboxamido)ethyl)benzoic acid]
23 | 0.12 nM | C[C@H](NC(=O)c1c(C(F)(F)F)nn2c1N(Cc1cc(Br)cc(C(F)(F)F)c1)CC2)c1ccc(C(=O)O)cc1 [Compound 85, (S)-4-(1-(1-(3-bromo-5-(trifluoromethyl)benzyl)-6-(trifluoromethyl)-2,3-dihydro-1H-imidazo[1,2-b]pyrazole-7-carboxamido)ethyl)benzoic Acid]
24 | 1.48 nM | C[C@H](NC(=O)c1c(C(F)(F)F)nn2c1N(Cc1ccc(O)cc1)CC2)c1ccc(C(=O)O)cc1 [Compound 86, (S)-4-(1-(1-(4-hydroxybenzyl)-6-(trifluoromethyl)-2,3-dihydro-1H-imidazo[1,2-b]pyrazole-7-carboxamido)ethyl)benzoic Acid]
25 | 1.57 nM | C[C@H](NC(=O)c1c(C(F)(F)F)nn2c1N(Cc1cccc(N(C)C)c1)CC2)c1ccc(C(=O)O)cc1 [Compound 89, (S)-4-(1-(1-(3-(dimethylamino)benzyl)-6-(trifluoromethyl)-2,3-dihydro-1H-imidazo[1,2-b]pyrazole-7-carboxamido)ethyl)benzoic Acid]
26 | 0.636 nM | C[C@H](NC(=O)c1c(CF)nn2c1N(Cc1cccc(C(F)(F)F)c1)CC2)c1ccc(C(=O)O)cc1 [Compound 91, (S)-4-(1-(6-(Fluoromethyl)-1-(3-(trifluoromethyl)benzyl)-2,3-dihydro-1H-imidazo[1,2-b]pyrazole-7-carboxamido)ethyl)benzoic Acid]
27 | 0.343 nM | C[C@H](NC(=O)c1c(C(F)F)nn2c1N(Cc1cccc(C(F)(F)F)c1)CC2)c1ccc(C(=O)O)cc1 [Compound 94, (S)-4-(1-(6-(Difluoromethyl)-1-(3-(trifluoromethyl)benzyl)-2,3-dihydro-1H-imidazo[1,2-b]pyrazole-7-carboxamido)ethyl)benzoic Acid]
